Measured values as given in paper PMC11763264, “Antibacterial and Antifungal Activities of Linear and Cyclic Peptides Containing Arginine, Tryptophan, and Diphenylalanine” (Antibiotics, 2025).
Values after ≈ are worked out from the molar mass of the structure shown. Non-standard residues stand in square brackets, D forms with d. Residues, ends and D or L forms follow the SMILES beside them. Dip = N[C@H](C(=O)O)C(c1ccccc1)c1ccccc1

Legend:
Experiment in all cases: microbe, parasite or virus in culture
[1] = system: P. aeruginosa (ATCC 27883); assay type: cell-based, Pseudomonas aeruginosa; conditions: ATCC 27883, 24 h
Procedure: (§1) The antibacterial activity of all ten synthesized linear and cyclic peptides was evaluated against MRSA (ATCC BAA-1556), S. aureus (ATCC 29213), E. faecium (ATCC 700221), S. pneumoniae (ATCC 51938), E. faecalis (ATCC 29212), B. subtilis (ATCC-6633), K. pneumoniae (ATCC BAA-1705), P. aeruginosa (ATCC 27883), and E. coli (ATCC 25922). Meropenem and daptomycin were used as positive controls for this study. Certain peptides are marked as “NT” (not tested) against specific bacterial strains based on initial screening data. […] The MIC was determined by micro-broth dilution protocol, where the minimal concentrations were determined to be in wells with no visible bacterial growth.
(§2) All bacterial experiments were carried out in a laminar flow hood (Labconco, Kansas City, MO, USA). The bacterial strains were cultured following the guidelines set by the Clinical Laboratory Standards Institute (CLSI). Antibacterial assays were performed using a standard microtiter dilution method as described in previous studies. The minimum inhibitory concentration (MIC) refers to the lowest peptide concentration that inhibits bacterial growth in wells with no visible bacterial growth. MIC was determined by micro-broth dilution. Bacteria were cultured overnight in 6 mL of Luria Broth (LB). A stock solution of the peptide was prepared in water and DMSO, and a test compound solution with a concentration of 256 µg/mL was made in LB. Meropenem, with a solubility of 8 mg/mL, was prepared as a stock solution at 4 mg/500 µL. An aliquot of the overnight bacteria culture was diluted in normal saline (NS, 1 mL) until achieving a 0.5 McFarland turbidity (1.5 × 10^8 bacterial cell CFU/mL). A 0.5 McFarland compared solution (60 µL) was added to Mueller Hinton Broth (MH) 8940 µL to generate a 1/150 dilution. A 200 µL test compound solution was added to the first well of a 96-well plate, and the remaining wells (2–12) were filled with 100 µL of MH media using a multi-channel pipette from a sterile reservoir. A concentration of […] of the tested peptides was prepared from a stock solution of the samples for testing in Muller−Hinton broth MH media. Peptides stock solution was dissolved in 5% DMSO in water, and the final concentration of DMSO in the first well of assay plate was 2.5% DMSO/H2O and diluted across the assay plate.
(§3) A 100 µL sample from well 1 was pipetted into well 2, and the solution was mixed thoroughly by pipetting up and down. Next, 100 µL was transferred from well 2 to well 3, followed by thorough mixing. This 2-fold serial dilution process continued through well 11, with no additions made to well 12. The final 100 µL from well 11 was discarded. After completing the serial dilution, each well (1–12) contained 100 µL of solution. The bacterial culture in MH media was vortexed and transferred to a sterile reservoir, from which 100 µL was added to each well using a 12-channel pipette. (Note: The dilutions were further diluted upon adding the bacterial solution; for example, the concentration in well 1 started at […] after the addition of the bacterial culture.) The plates were incubated overnight at 37 °C for 24 h. All experiments were performed in triplicate and repeated twice, with controls consisting of bacteria in MH media and positive controls of daptomycin or meropenem.

MRSA (ATCC BAA-1556) = assay type: cell-based, Methicillin-Resistant Staphylococcus aureus; conditions: ATCC BAA-1556, 24 h
Procedure: as §1, §2, §3

C. albicans (ATCC 60193) = assay type: cell-based, Candida albicans
Procedure: (§4) The antifungal activity of all ten synthesized linear and cyclic peptides was evaluated against C. albicans (ATCC 60193), C. parapsilosis (ATCC 22019), and A. fumigatus (AF-293). Fluconazole and amphotericin B were used as positive controls for this study. The MIC was determined at concentrations in wells with no visible fungal growth.
(§5) In this study, C. albicans and C. parapsilosis were cultured on Yeast Peptone Dextrose (YPD) agar containing 1% w/v yeast extract, 2% w/v peptone, 2% w/v D-glucose, and 1.5% agar. A single colony from the agar was selected and cultured in Tryptone soy broth supplemented with 0.1% D-glucose, then incubated for 24 h at 37 °C. The cells were washed twice with PBS by centrifugation at 2000 RPM for 5 min. The pellet was resuspended in 5 mL of PBS, diluted in RPMI 1640 with L-glutamine, supplemented with 2% D-glucose, and the pH adjusted using HEPES buffer. The suspension was then incubated for 50 min at 35 °C to achieve a final cell concentration of 10^6 cells/mL.
(§6) Peptide concentrations of 50, 25, 12.5, 6.25, and 3.1 μg/mL were tested in triplicate and repeated twice. Each well of a 96-well plate was inoculated with the prepared inoculum suspension, which was diluted with RPMI media to a final volume of 200 μL per well. The control well received the same inoculum without any compound. The plates were incubated for 24 h at 37 °C. Fungal and microbial growth were visually observed in the control wells, and the minimum inhibitory concentration (MIC) was determined as the lowest concentration at which no growth was detected in the wells. Amphotericin B was used as a standard antifungal drug.

[2] = system: K. pneumoniae (ATCC BAA-1705); assay type: cell-based, Klebsiella pneumoniae; conditions: ATCC BAA-1705, 24 h
Procedure: as §1, §2, §3

E. coli (ATCC 25922) = assay type: cell-based, Escherichia coli; conditions: ATCC 25922, 24 h
Procedure: as §1, §2, §3

A. fumigatus (Af-293) = assay type: cell-based, Aspergillus fumigatus; conditions: RPMI 1640 with 2% D-glucose, HEPES, 10^6 cells/mL, 24 and 48 h at 35 °C, no visible growth, triplicates, repeated twice
Procedure: as §4
A. fumigatus (Af-293) was cultured on Sabouraud dextrose agar (SDA) (Lot #3431660, Oxoid) for 48–72 h at 35 °C to obtain fresh and mature colonies which reached the proper sporulation then used to prepare the inoculum. The colonies were covered with Phosphate-Buffered Saline (PBS) containing 0.025% Tween-20, scraped from the plate, and carefully collected into a sterile tube. The suspension was centrifuged at 3000 RPM for 5 min after the separation between conidia and hyphae. The supernatant was discarded, and the pellet was resuspended in 5 mL of PBS.
Peptide concentrations of 50, 25, 12.5, 6.25, and 3.1 μg/mL were tested in triplicate. Each well of a 96-well plate was inoculated with the prepared inoculum suspension, which was diluted with RPMI 1640 medium containing L-glutamine, supplemented with 2% D-glucose, and the pH adjusted using HEPES buffer. The plates were incubated for 50 min at 35 °C to achieve a final cell concentration of 10^6 cells/mL. The control wells contained the same inoculum without any compound. The plates were then incubated for 24 and 48 h at 35 °C. Fungal growth was visualized, and the minimum inhibitory concentration (MIC) was determined as the lowest peptide concentration, where no growth was observed.

[3] = system: C. parapsilosis (ATCC 22019); assay type: cell-based, Candida parapsilosis
Procedure: as §4, §5, §6

Row | MIC [1] | MIC (MRSA (ATCC BAA-1556)) | MIC (C. albicans (ATCC 60193); ATCC 60193, 24 h) | MIC [2] | MIC (E. coli (ATCC 25922)) | MIC ([3]; ATCC 22019, 24 h) | MIC (C. albicans (ATCC 60193); Candida albicans, ATCC60193, RPMI 1640 with 2% D-glucose, HEPES, 10^6 cells/mL, 24 h at 37 °C, no visible growth, triplicates, repeated twice) | MIC ([3]; Lodderomyces parapsilosis, ATCC22019, RPMI 1640 with 2% D-glucose, HEPES, 10^6 cells/mL, 24 h at 37 °C, no visible growth, triplicates, repeated twice) | SMILES | MIC (A. fumigatus (Af-293)) | MIC (A. fumigatus (Af-293); Aspergillus fumigatus)
1 | 25 µM (≈ 45.6 µg/mL) | 3.1 µM (≈ 5.65 µg/mL) | 6.8 µM (≈ 12.4 µg/mL) | 12.5 µM (≈ 22.8 µg/mL) | 12.5 µM (≈ 22.8 µg/mL) | 6.8 µM (≈ 12.4 µg/mL) | – | – | N=C(N)NCCC[C@@H]1NC(=O)[C@H](Cc2c[nH]c3ccccc23)NC(=O)[C@H](CCCNC(=N)N)NC(=O)[C@H](C(c2ccccc2)c2ccccc2)NC(=O)[C@H](CCCNC(=N)N)NC(=O)[C@H](C(c2ccccc2)c2ccccc2)NC(=O)[C@H](CCCNC(=N)N)NC(=O)[C@H](C(c2ccccc2)c2ccccc2)NC(=O)[C@H](CCCNC(=N)N)NC(=O)[C@H](Cc2c[nH]c3ccccc23)NC1=O [[(DipR)3(WR)2]] (cyclo([Dip]R[Dip]R[Dip]RWRWR)) | 1.7 µM (≈ 3.1 µg/mL) | –
2 | 25 µM (≈ 44.7 µg/mL) | 3.1 µM (≈ 5.54 µg/mL) | 7.0 µM (≈ 12.5 µg/mL) | 12.5 µM (≈ 22.3 µg/mL) | 12.5 µM (≈ 22.3 µg/mL) | 7.0 µM (≈ 12.5 µg/mL) | – | – | N=C(N)NCCC[C@@H]1NC(=O)[C@H](Cc2c[nH]c3ccccc23)NC(=O)[C@H](CCCNC(=N)N)NC(=O)[C@H](Cc2c[nH]c3ccccc23)NC(=O)[C@H](CCCNC(=N)N)NC(=O)[C@H](C(c2ccccc2)c2ccccc2)NC(=O)[C@H](CCCNC(=N)N)NC(=O)[C@H](C(c2ccccc2)c2ccccc2)NC(=O)[C@H](CCCNC(=N)N)NC(=O)[C@H](Cc2c[nH]c3ccccc23)NC1=O [[(DipR)2(WR)3]] (cyclo([Dip]R[Dip]RWRWRWR)) | 1.7 µM (≈ 3.04 µg/mL) | –
3 | 25 µM (≈ 43.7 µg/mL) | 3.1 µM (≈ 5.42 µg/mL) | 14.3 µM (≈ 25 µg/mL) | 12.5 µM (≈ 21.9 µg/mL) | 12.5 µM (≈ 21.9 µg/mL) | 7.1 µM (≈ 12.4 µg/mL) | – | – | N=C(N)NCCC[C@@H]1NC(=O)[C@H](Cc2c[nH]c3ccccc23)NC(=O)[C@H](CCCNC(=N)N)NC(=O)[C@H](Cc2c[nH]c3ccccc23)NC(=O)[C@H](CCCNC(=N)N)NC(=O)[C@H](C(c2ccccc2)c2ccccc2)NC(=O)[C@H](CCCNC(=N)N)NC(=O)[C@H](Cc2c[nH]c3ccccc23)NC(=O)[C@H](CCCNC(=N)N)NC(=O)[C@H](Cc2c[nH]c3ccccc23)NC1=O [[(DipR)(WR)4]] (cyclo([Dip]RWRWRWRWR)) | 1.8 µM (≈ 3.15 µg/mL) | –
4 | – | – | – | – | – | – | 4.9 µM (≈ 1.5 µg/mL) | 3.3 µM (≈ 1.01 µg/mL) | OC(Cn1cncn1)(Cn1cncn1)c1ccc(F)cc1F [Fluconazole, reference compound] | >209 µM | > 209 µM
